Measurements from US10385097B2, “Ether compounds for treatment of medical disorders” (Achillion Pharmaceuticals, Inc., priority 2015, dated 2019).

target: T1, Human Factor D (Homo sapiens, UniProt P00746); experiment: Human Factor D Assay; assay type: biochemical; settings: Table 3; Human Factor D 80 nM, substrate Z-L-Lys-SBzl; read-out: (IC50 (Stars))
T1 construct: purified from human serum; purchased Complement Technology, Inc; host or cells: human serum (natural protein, not recombinant)
Method in brief: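 Serum-purified factor D (80 nM final) preincubated 5 min at room temperature with compound in 50 mM Tris, 1 M NaCl, pH 7.5. Reaction started with 100 μM Z-L-Lys-SBzl plus 100 μM DTNB; A405 read every 30 s for 30 min; IC50 by nonlinear regression of rates.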

T1 sequence (P00746 26-253): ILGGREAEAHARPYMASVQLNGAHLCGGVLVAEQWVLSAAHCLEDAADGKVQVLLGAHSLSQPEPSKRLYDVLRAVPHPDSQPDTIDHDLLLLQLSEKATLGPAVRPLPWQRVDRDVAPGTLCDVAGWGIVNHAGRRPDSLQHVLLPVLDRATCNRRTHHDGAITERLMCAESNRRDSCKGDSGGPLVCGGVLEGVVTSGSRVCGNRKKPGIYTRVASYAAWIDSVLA

IC50 [nM] | SMILES
< 1000 | CC(=O)c1nn(CC(=O)N2[C@@H]3C[C@@H]3C[C@H]2C(=O)Nc2nc(Br)ccc2C)c2ccc(Oc3ncc(C)cn3)cc12 [Compound 173, (1R,3S,5R)-2-(2-(3-Acetyl-5-((5-methylpyrimidin-2-yl)oxy)-1H-indazol-1-yl)acetyl)-N-(6-bromo-3-methylpyridin-2-yl)-2-azabicyclo[3.1.0]hexane-3-carboxamide]
< 1000 | COc1cc(Br)nc(NC(=O)[C@@H]2C[C@@H](F)CN2C(=O)Cn2nc(C(C)=O)c3cc(Oc4ncc(C)cn4)ccc32)c1 [Compound 174, (2S,4R)-1-(2-(3-Acetyl-5-((5-methylpyrimidin-2-yl)oxy)-1H-indazol-1-yl)acetyl)-N-(6-bromo-4-methoxypyridin-2-yl)-4-fluoropyrrolidine-2-carboxamide]
< 1000 | CC(=O)c1nn(CC(=O)N2C[C@H](F)C[C@H]2C(=O)Nc2cccc(Br)n2)c2ccc(Oc3cnc(C)cn3)cc12 [Compound 175, (2S,4R)-1-(2-(3-Acetyl-5-((5-methylpyrazin-2-yl)oxy)-1H-indazol-1-yl)acetyl)-N-(6-bromopyridin-2-yl)-4-fluoropyrrolidine-2-carboxamide]
< 1000 | CC(=O)c1nn(CC(=O)N2C[C@H](F)C[C@H]2C(=O)Nc2ccc(F)c(Br)n2)c2ccc(Oc3ncc(C)cn3)cc12 [Compound 176, (2S,4R)-1-(2-(3-Acetyl-5-((5-methylpyrimidin-2-yl)oxy)-1H-indazol-1-yl)acetyl)-N-(6-bromo-5-fluoropyridin-2-yl)-4-fluoropyrrolidine-2-carboxamide]
< 1000 | CC(=O)c1nn(CC(=O)N2[C@@H]3C[C@@H]3C[C@H]2C(=O)Nc2ccc(F)c(Br)n2)c2ccc(Oc3ncc(C)cn3)cc12 [Compound 177, (1R,3S,5R)-2-(2-(3-Acetyl-5-((5-methylpyrimidin-2-yl)oxy)-1H-indazol-1-yl)acetyl)-N-(6-bromo-5-fluoropyridin-2-yl)-2-azabicyclo[3.1.0]hexane-3-carboxamide]
< 1000 | CC(=O)c1nn(CC(=O)N2C[C@H](F)C[C@H]2C(=O)Nc2ccc(F)c(Br)n2)c2ccc(Oc3cnc(C)cn3)cc12 [Compound 178, (2S,4R)-1-(2-(3-Acetyl-5-((5-methylpyrazin-2-yl)oxy)-1H-indazol-1-yl)acetyl)-N-(6-bromo-5-fluoropyridin-2-yl)-4-fluoropyrrolidine-2-carboxamide]
< 1000 | CC(=O)c1nn(CC(=O)N2C[C@H](F)C[C@H]2C(=O)Nc2nc(Br)ccc2C)c2ccc(Oc3cnc(C)cn3)cc12 [Compound 179, (2S,4R)-1-(2-(3-Acetyl-5-((5-methylpyrazin-2-yl)oxy)-1H-indazol-1-yl)acetyl)-N-(6-bromo-3-methylpyridin-2-yl)-4-fluoropyrrolidine-2-carboxamide]
< 1000 | CC(=O)c1nn(CC(=O)N2C[C@H](F)C[C@H]2C(=O)Nc2cccc(Br)n2)c2ccc(Oc3cc(C)ncn3)cc12 [Compound 180, (2S,4R)-1-(2-(3-Acetyl-5-((6-methylpyrimidin-4-yl)oxy)-1H-indazol-1-yl)acetyl)-N-(6-bromopyridin-2-yl)-4-fluoropyrrolidine-2-carboxamide]
> 10000 | Cc1cccc(NC(=O)[C@@H]2[C@H]3CC[C@H](C3)N2C(=O)Cn2cc(C(N)=O)c3cc(OCP(=O)(O)O)ccc32)n1 [Compound 183, (((3-carbamoyl-1-(2-((1R,3S,4S)-3-((6-methylpyridin-2-yl)carbamoyl)-2-azabicyclo[2.2.1]heptan-2-yl)-2-oxoethyl)-1H-indol-5-yl)oxy)methyl)phosphonic acid]
< 1000 | CC(=O)c1nn(CC(=O)N2C[C@H]3C[C@H]3[C@H]2C(=O)Nc2nc(Br)ccc2C2CC2)c2ccc(O[C@@H]3CO[C@H]4[C@@H]3OC[C@H]4O)cc12 [Compound 184, (1R,2S,5S)-3-(2-(3-Acetyl-5-((3R,3aR,6R,6aR)-6-hydroxyhexahydrofuro[3,2-b]furan-3-yloxy)-1H-indazol-1-yl)acetyl)-N-(6-bromo-3-cyclopropylpyridin-2-yl)-3-azabicyclo[3.1.0]hexane-2-carboxamide]
< 1000 | CC(=O)c1nn(CC(=O)N2C[C@H]3C[C@H]3[C@H]2C(=O)Nc2nc(Br)ccc2C)c2ccc(O[C@@H]3CO[C@H]4[C@@H]3OC[C@H]4O)cc12 [Compound 185, (1R,2S,5S)-3-(2-(3-Acetyl-5-((3R,3aR,6R,6aR)-6-hydroxyhexahydrofuro[3,2-b]furan-3-yloxy)-1H-indazol-1-yl)acetyl)-N-(6-bromo-3-methylpyridin-2-yl)-3-azabicyclo[3.1.0]hexane-2-carboxamide]
> 10000 | Cc1cccc(NC(=O)[C@@H]2[C@H]3CC[C@H](C3)N2C(=O)Cn2cc(C(N)=O)c3cc(OCS(=O)(=O)NC(C)(C)C)ccc32)n1 [Compound 186, 5-((N-(tert-butyl)sulfamoyl)methoxy)-1-(2-((1R,3S,4S)-3-((6-methylpyridin-2-yl)carbamoyl)-2-azabicyclo[2.2.1]heptan-2-yl)-2-oxoethyl)-1H-indole-3-carboxamide]
> 10000 | Cc1cccc(NC(=O)[C@@H]2[C@H]3CC[C@H](C3)N2C(=O)Cn2cc(C(N)=O)c3cc(OCS(N)(=O)=O)ccc32)n1 [Compound 187, 1-(2-((1R,3S,4S)-3-((6-Methylpyridin-2-yl)carbamoyl)-2-azabicyclo[2.2.1]heptan-2-yl)-2-oxoethyl)-5-(sulfamoylmethoxy)-1H-indole-3-carboxamide]
< 1000 | CC(=O)c1nn(CC(=O)N2C[C@H](F)C[C@H]2C(=O)Nc2cccc(Br)n2)c2ccc(OC3CCOC3)cc12 (stereo partly drawn) [Compound 193, (2S,4R)-1-(2-(3-acetyl-5-((tetrahydrofuran-3-yl)oxy)-1H-indazol-1-yl)acetyl)-N-(6-bromopyridin-2-yl)-4-fluoropyrrolidine-2-carboxamide]
< 1000 | CC(=O)c1nn(CC(=O)N2C[C@H](F)C[C@H]2C(=O)Nc2cccc(Br)n2)c2ccc(OC3CCCC3)cc12 [Compound 194, (2S,4R)-1-(2-(3-acetyl-5-(cyclopentyloxy)-1H-indazol-1-yl)acetyl)-N-(6-bromopyridin-2-yl)-4-fluoropyrrolidine-2-carboxamide]
< 1000 | CC(=O)c1nn(CC(=O)N2C[C@H](F)C[C@H]2C(=O)Nc2cccc(Br)n2)c2ccc(O[C@@H]3CO[C@H]4[C@@H]3OC[C@H]4O)cc12 [Compound 200, (2S,4R)-1-(2-(3-acetyl-5-(((3R,3aR,6R,6aR)-6-hydroxy-hexahydrofuro[3,2-b]furan-3-yl)oxy)-1H-indazol-1-yl)acetyl)-N-(6-bromopyridin-2-yl)-4-fluoropyrrolidine-2-carboxamide]
< 1000 | CC(=O)c1nn(CC(=O)N2C[C@H](F)C[C@H]2C(=O)Nc2cccc(Br)n2)c2cc(OCP(=O)(O)O)ccc12 [Compound 201, (((3-acetyl-1-(2-((2S,4R)-2-((6-bromopyridin-2-yl)carbamoyl)-4-fluoropyrrolidin-1-yl)-2-oxoethyl)-1H-indazol-6-yl)oxy)methyl)phosphonic acid]
< 1000 | CC(=O)c1nn(CC(=O)N2[C@H](C(=O)Nc3cccc(Br)n3)C[C@@]3(C)C[C@@H]23)c2cc(OCP(=O)(O)O)ccc12 [Compound 250, (((3-acetyl-1-(2-((1R,3S,5R)-3-((6-bromopyridin-2-yl)carbamoyl)-5-methyl-2-azabicyclo[3.1.0]hexan-2-yl)-2-oxoethyl)-1H-indazol-6-yl)oxy)methyl)phosphonic acid]
< 1000 | CC(=O)c1cn(CC(=O)N2C[C@H](F)C[C@H]2C(=O)Nc2cccc(-c3ccccc3Cl)c2F)c2ccc(OCC[S+]([O-])CC(C)(CO)CO)cc12 (stereo partly drawn) [Compound 251, (2S,4R)-1-(2-(3-acetyl-5-(2-(3-hydroxy-2-(hydroxymethyl)-2-methyl-propylsulfinyl)ethoxy)-1H-indol-1-yl)acetyl)-N-(2′-chloro-2-fluorobiphenyl-3-yl)-4-fluoropyrrolidine-2-carboxamide]
< 1000 | CC(=O)c1cn(CC(=O)N2C[C@H](F)C[C@H]2C(=O)Nc2cccc(-c3ccccc3Cl)c2F)c2ccc(OCC[S+]([O-])CC3(C)COC3)cc12 (stereo partly drawn) [Compound 252, (2S,4R)-1-(2-(3-acetyl-5-(2-((3-methyloxetan-3-yl)methylsulfinyl)ethoxy)-1H-indol-1-yl)acetyl)-N-(2′-chloro-2-fluorobiphenyl-3-yl)-4-fluoropyrrolidine-2-carboxamide]
< 1000 | CC(=O)c1cn(CC(=O)N2C[C@H](F)C[C@H]2C(=O)Nc2cccc(-c3ccccc3Cl)c2F)c2ccc(OCCS(=O)(=O)CC3(C)COC3)cc12 [Compound 253, (2S,4R)-1-(2-(3-acetyl-5-(2-((3-methyloxetan-3-yl)methylsulfonyl)ethoxy)-1H-indol-1-yl)acetyl)-N-(2′-chloro-2-fluorobiphenyl-3-yl)-4-fluoropyrrolidine-2-carboxamide]

SMILES | IC50 [nM]
CCOP(=O)(COc1ccc2c(c1)c(C(N)=O)cn2CC(=O)N1[C@@H]2CC[C@@H](C2)[C@H]1C(=O)Nc1cccc(C)n1)OCC [Compound 182, diethyl (((3-Carbamoyl-1-(2-((1R,3S,4S)-3-((6-methylpyridin-2-yl)carbamoyl)-2-azabicyclo[2.2.1]heptan-2-yl)-2-oxoethyl)-1H-indol-5-yl)oxy)methyl)phosphonate] | > 10000
